Key:
spliceosome (SF3B1) = spliceosome (SF3B1) (Homo sapiens, UniProt O75533+Q7RTV0); settings: in vivo; cited from earlier work
Water solubility = assay type: physicochemical

Sequence of spliceosome (SF3B1) (Q7RTV0 whole entry, canonical isoform): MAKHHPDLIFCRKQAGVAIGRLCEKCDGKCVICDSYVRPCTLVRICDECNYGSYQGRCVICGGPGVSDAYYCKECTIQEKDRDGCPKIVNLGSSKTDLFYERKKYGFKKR
Sequence of spliceosome (SF3B1) (Q15393 whole entry, further chain, canonical isoform): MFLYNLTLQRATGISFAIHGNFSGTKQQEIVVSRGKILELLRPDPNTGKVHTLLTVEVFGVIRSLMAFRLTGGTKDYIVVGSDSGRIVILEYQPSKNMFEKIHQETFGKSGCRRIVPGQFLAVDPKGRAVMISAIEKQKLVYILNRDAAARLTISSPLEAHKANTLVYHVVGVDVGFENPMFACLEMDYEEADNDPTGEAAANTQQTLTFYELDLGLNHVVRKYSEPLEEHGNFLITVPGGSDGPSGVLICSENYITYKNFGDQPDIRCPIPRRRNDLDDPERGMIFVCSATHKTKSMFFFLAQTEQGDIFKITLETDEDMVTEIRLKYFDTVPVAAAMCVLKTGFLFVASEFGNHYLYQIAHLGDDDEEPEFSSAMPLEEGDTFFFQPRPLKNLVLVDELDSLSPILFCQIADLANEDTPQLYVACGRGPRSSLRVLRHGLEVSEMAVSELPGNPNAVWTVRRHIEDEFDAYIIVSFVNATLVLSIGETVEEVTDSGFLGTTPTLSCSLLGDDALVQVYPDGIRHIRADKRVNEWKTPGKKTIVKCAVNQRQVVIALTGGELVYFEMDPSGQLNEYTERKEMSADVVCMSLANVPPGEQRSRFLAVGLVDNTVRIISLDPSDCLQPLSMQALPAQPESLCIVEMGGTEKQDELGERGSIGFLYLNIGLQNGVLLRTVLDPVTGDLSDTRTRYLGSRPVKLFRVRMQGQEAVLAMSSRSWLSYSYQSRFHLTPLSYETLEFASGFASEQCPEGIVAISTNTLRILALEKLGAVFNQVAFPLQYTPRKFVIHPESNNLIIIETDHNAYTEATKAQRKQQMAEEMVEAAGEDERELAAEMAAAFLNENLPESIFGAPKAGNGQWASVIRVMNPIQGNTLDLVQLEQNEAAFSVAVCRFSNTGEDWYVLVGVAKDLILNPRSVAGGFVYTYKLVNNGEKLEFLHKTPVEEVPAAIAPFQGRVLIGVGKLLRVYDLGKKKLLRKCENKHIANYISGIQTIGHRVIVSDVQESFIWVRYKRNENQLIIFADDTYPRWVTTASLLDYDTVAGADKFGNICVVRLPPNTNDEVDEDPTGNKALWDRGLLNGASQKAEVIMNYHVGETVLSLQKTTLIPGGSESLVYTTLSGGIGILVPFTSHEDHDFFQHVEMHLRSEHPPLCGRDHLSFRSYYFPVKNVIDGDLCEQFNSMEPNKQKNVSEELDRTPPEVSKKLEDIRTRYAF
Sequence of spliceosome (SF3B1) (Q9BWJ5 whole entry, further chain, canonical isoform): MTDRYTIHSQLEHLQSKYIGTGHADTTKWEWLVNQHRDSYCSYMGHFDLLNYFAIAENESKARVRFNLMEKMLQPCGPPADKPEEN
Sequence of spliceosome (SF3B1) (O75533 whole entry, canonical isoform): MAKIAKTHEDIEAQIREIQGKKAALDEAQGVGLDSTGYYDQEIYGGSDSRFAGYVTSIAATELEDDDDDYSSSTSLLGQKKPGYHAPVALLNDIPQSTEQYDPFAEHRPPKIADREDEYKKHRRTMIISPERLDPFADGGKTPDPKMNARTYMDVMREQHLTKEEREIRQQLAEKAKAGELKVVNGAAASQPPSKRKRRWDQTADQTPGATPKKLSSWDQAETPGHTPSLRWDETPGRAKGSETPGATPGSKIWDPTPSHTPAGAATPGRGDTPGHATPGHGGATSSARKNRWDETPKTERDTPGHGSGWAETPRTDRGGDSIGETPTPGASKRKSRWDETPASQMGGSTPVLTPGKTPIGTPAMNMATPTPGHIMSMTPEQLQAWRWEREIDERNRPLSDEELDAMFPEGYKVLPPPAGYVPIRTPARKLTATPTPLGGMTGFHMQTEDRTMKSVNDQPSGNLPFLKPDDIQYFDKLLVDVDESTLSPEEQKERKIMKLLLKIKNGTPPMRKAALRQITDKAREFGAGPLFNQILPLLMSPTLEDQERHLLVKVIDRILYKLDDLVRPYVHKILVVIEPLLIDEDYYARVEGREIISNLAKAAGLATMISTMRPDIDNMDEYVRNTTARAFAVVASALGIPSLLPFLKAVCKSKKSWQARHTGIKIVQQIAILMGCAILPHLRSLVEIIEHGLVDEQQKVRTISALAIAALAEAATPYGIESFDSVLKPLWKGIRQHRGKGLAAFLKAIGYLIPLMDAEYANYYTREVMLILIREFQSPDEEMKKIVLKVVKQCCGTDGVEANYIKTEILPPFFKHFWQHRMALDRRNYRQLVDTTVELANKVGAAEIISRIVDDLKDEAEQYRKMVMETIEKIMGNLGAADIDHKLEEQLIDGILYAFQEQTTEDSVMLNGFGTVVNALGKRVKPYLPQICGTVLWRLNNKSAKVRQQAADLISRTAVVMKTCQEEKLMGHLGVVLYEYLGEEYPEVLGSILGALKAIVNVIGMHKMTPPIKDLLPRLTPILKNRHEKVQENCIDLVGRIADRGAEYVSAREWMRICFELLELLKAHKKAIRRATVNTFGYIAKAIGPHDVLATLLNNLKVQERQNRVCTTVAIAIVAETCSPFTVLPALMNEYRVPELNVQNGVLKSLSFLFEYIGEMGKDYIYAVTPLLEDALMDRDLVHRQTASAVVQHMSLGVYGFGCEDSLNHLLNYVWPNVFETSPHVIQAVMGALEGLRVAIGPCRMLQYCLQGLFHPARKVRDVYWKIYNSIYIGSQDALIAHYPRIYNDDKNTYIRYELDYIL

Structure (SMILES) | outcome of testing in human (spliceosome (SF3B1)) | water solubility (Water solubility)
CC[C@H](O)[C@@H](C)[C@H]1O[C@@H]1C[C@@](C)(O)/C=C/C=C(\C)[C@H]1OC(=O)C[C@H](O)CC[C@@](C)(O)[C@@H](OC(=O)N2CCN(C3CCCCCC3)CC2)/C=C/[C@@H]1C [E7107] | stopped because of problems of toxicity | 
COc1ccc(-c2cc(=O)c3c([O-])cc(OP(=O)(O)O)c(-c4cc(-c5cc(=O)c6c([O-])cc(OP(=O)(O)O)cc6o5)ccc4OC)c3o2)cc1.[Na+].[Na+] [Compound 2] |  | considerably higher than that of the parent compound isoginkgetin
